# Experimental data from patent publication US4753953A, “Pyridonecarboxylic acid derivatives and antibacterial pharmaceutical compositions thereof” (priority 1985, dated 1988).
# Read-outs that look alike come from different tables or passages of the source.
# Tests used:
# S. aureus Smith = assay: MIC, in vitro antibacterial activity (standard strains); format: cell-based, Staphylococcus aureus; conditions: Staphylococcus aureus; 10^6 cells/ml; Gram +; read-out: MIC
# S. pneumoniae IID 552 = assay: as above; format: cell-based; conditions: Streptococcus pneumoniae, IID552; 10^6 cells/ml; Gram +; read-out: MIC
# [1] = system: Proteus vulgaris IFO 3167; assay: as above; format: cell-based; conditions: Proteus vulgaris, IFO3167; 10^6 cells/ml; Gram -; read-out: MIC
# E. coli ATCC 10536 = assay: as above; format: cell-based, Escherichia coli; conditions: Escherichia coli, ATCC10536; 10^6 cells/ml; Gram -; read-out: MIC
# P. aeruginosa IFO 12689 = assay: as above; format: cell-based, Pseudomonas aeruginosa; conditions: Pseudomonas aeruginosa, IFO12689; 10^6 cells/ml; Gram -; read-out: MIC
# C. perfringens KYA 13123 = assay: microbe, parasite or virus in culture; format: cell-based; conditions: Clostridium perfringens, KYA13123
# B. vulgatus KYA 29327 = assay: MIC, in vitro antibacterial activity (standard strains); format: cell-based; conditions: Phocaeicola vulgatus, KYA29327; 10^6 cells/ml; Gram -; read-out: MIC
# [2] = system: Veillonella parvula KYA 10790; assay: as above; format: cell-based; conditions: Veillonella parvula, KYA10790; 10^6 cells/ml; Gram -; read-out: MIC
# E. faecalis IID 682 = assay: as above; format: cell-based; conditions: Enterococcus faecalis, IID682; 10^6 cells/ml; Gram +; read-out: MIC
# Pst. micros UPI 5464-1 = assay: as above; format: cell-based; conditions: Parvimonas micra, UPI54641; 10^6 cells/ml; Gram +; read-out: MIC
# [3] = system: Klebsiella pneumoniae KY(GN)6445; assay: as above; format: cell-based; conditions: Klebsiella pneumoniae; 10^6 cells/ml; Gram -; read-out: MIC
# [4] = system: S. aureus IID 670 (Terajima); assay: as above; format: cell-based, Staphylococcus aureus; conditions: Staphylococcus aureus, IID670; 10^6 cells/ml; Gram +; read-out: MIC
# [5] = system: Staphylococcus aureus 209 P; assay: as above; format: cell-based; conditions: Staphylococcus aureus, 209P; 10^6 cells/ml; Gram +; read-out: MIC
# [6] = system: Alcaligenes faecalis 0114002; assay: as above; format: cell-based; conditions: Alcaligenes faecalis, 0114002; 10^6 cells/ml; Gram -; read-out: MIC
# P. mirabilis IID 994 = assay: as above; format: cell-based; conditions: Proteus mirabilis, IID994; 10^6 cells/ml; Gram -; read-out: MIC
# [7] = system: B. thetaiotaomicron (0661); assay: as above; format: cell-based; conditions: Bacteroides thetaiotaomicron; 10^6 cells/ml; Gram -; read-out: MIC
# [8] = system: Serratia marcescens IID 618; assay: as above; format: cell-based; conditions: Serratia marcescens, IID618; 10^6 cells/ml; Gram -; read-out: MIC
# S. pyogenes IID 692 = assay: as above; format: cell-based, Streptococcus pyogenes; conditions: Streptococcus pyogenes, IID692; 10^6 cells/ml; Gram +; read-out: MIC
# P. aeruginosa IID 1210 = assay: as above; format: cell-based, Pseudomonas aeruginosa; conditions: Pseudomonas aeruginosa, IID1210; 10^6 cells/ml; Gram -; read-out: MIC
# K. pneumoniae 1-220S = assay: as above; format: cell-based, Klebsiella pneumoniae; conditions: Klebsiella pneumoniae, 1220S; 10^6 cells/ml; Gram -; read-out: MIC
# [9] = system: Salmonella enteritidis IID 604; assay: as above; format: cell-based; conditions: Salmonella enterica; 10^6 cells/ml; Gram -; read-out: MIC
# B. fragilis 0558 = assay: as above; format: cell-based, Bacteroides fragilis; conditions: Bacteroides fragilis, 0558; 10^6 cells/ml; Gram -; read-out: MIC
# B. distasonis 8503 = assay: as above; format: cell-based; conditions: Parabacteroides distasonis, 8503; 10^6 cells/ml; Gram -; read-out: MIC
# [10] = system: Bacillus subtilis PCI 219; assay: as above; format: cell-based; conditions: Bacillus subtilis, PCI219; 10^6 cells/ml; Gram +; read-out: MIC
# [11] = system: Peptostreptococcus anaerobius KYA 27337; assay: as above; format: cell-based; conditions: Peptostreptococcus anaerobius, KYA27337; 10^6 cells/ml; Gram +; read-out: MIC
# [12] = system: Morganella morganii IID 602; assay: as above; format: cell-based; conditions: Morganella morganii, IID602; 10^6 cells/ml; Gram -; read-out: MIC
# [13] = system: Bacteroides fragilis GM 7000; assay: as above; format: cell-based; conditions: Bacteroides fragilis, GM7000; 10^6 cells/ml; Gram -; read-out: MIC
# P. cepacia GIFU 518 = assay: as above; format: cell-based; conditions: Burkholderia cepacia, GIFU518
# F. necrophorum S-45 = assay: as above; format: cell-based; conditions: Fusobacterium necrophorum, S45; 10^6 cells/ml; Gram -; read-out: MIC
# C. ramosum = assay: as above; format: cell-based; conditions: Thomasclavelia ramosa; 10^6 cells/ml; Gram +; read-out: MIC
# [14] = system: Eubacterium lentum GAI 5242; assay: as above; format: cell-based; conditions: Eggerthella lenta, GAI5242; 10^6 cells/ml; Gram +; read-out: MIC
# [15] = system: Clostridium difficile I-E; assay: as above; format: cell-based; conditions: Clostridioides difficile; 10^6 cells/ml; Gram +
# E. limosum KYA 8486 = assay: as above; format: cell-based; conditions: Eubacterium limosum, KYA8486; 10^6 cells/ml; Gram +; read-out: MIC
# [16] = 10^6 cells/ml, Gram -, read-out: MIC
Structure (SMILES),MIC (S. aureus Smith) [µg/mL],MIC [1] [µg/mL],MIC (E. coli ATCC 10536) [µg/mL],MIC (P. aeruginosa IFO 12689) [µg/mL],MIC (C. perfringens KYA 13123) [µg/mL],MIC (B. vulgatus KYA 29327) [µg/mL],MIC [2] [µg/mL],MIC (Pst. micros UPI 5464-1) [µg/mL],MIC [3] [µg/mL],MIC [4] [µg/mL],MIC [5] [µg/mL],MIC [6] [µg/mL],MIC (P. mirabilis IID 994) [µg/mL],MIC [7] [µg/mL],MIC [8] [µg/mL],MIC (P. aeruginosa IID 1210) [µg/mL],MIC (K. pneumoniae 1-220S) [µg/mL],MIC [9] [µg/mL],MIC (B. fragilis 0558) [µg/mL],MIC (B. distasonis 8503) [µg/mL],further results
"C[C@H]1CN(c2c(F)cc3c(=O)c(C(=O)O)cn(C4CC4)c3c2Br)C[C@H]1N (relative stereo) [Example 21, 7-(cis-3-Amino-4-methyl-1-pyrrolidinyl)-8-bromo-1-cyclopropyl-6-fluoro-1,4-dihydro-4-oxo-3-quinolinecarboxylic acid]",0.025,0.0125,0.0125,0.78,0.1,0.1,0.1,0.1,0.0125,0.05,0.025,0.2,0.025,0.2,0.025,1.56,0.05,0.025,0.05,0.39,MIC (S. pneumoniae IID 552): 0.2 µg/mL; MIC (E. faecalis IID 682): 0.2 µg/mL; MIC (S. pyogenes IID 692): 0.2 µg/mL; MIC [10]: 0.0125 µg/mL; MIC [11]: 0.2 µg/mL; MIC [12]: 0.05 µg/mL; MIC [13]: 0.1 µg/mL; MIC (P. cepacia GIFU 518; [16]): 0.39 µg/mL; MIC (F. necrophorum S-45): 0.1 µg/mL; MIC (C. ramosum): 0.78 µg/mL; MIC [14]: 0.05 µg/mL; MIC [15]: 0.39 µg/mL
"CC1CN(c2c(F)cc3c(=O)c(C(=O)O)cn(C4CC4)c3c2Cl)CC1CN (centres unmarked) [Example 1, 7-(3-Aminomethyl-4-methyl-1-pyrrolidinyl)-8-chloro-1-cyclopropyl-6-fluoro-1,4-dihydro-4-oxo-3-quinolinecarboxylic acid]",0.0125,0.05,0.025,0.78,≤ 0.05,0.1,0.1,0.39,0.05,0.025,0.0125,0.2,0.05,0.1,0.1,0.78,0.05,0.05,≤ 0.05,0.39,MIC (S. pneumoniae IID 552): 0.0125 µg/mL; MIC (E. faecalis IID 682): 0.05 µg/mL; MIC (S. pyogenes IID 692): 0.025 µg/mL; MIC [10]: 0.0125 µg/mL; MIC [11]: ≤ 0.05 µg/mL; MIC [12]: 0.1 µg/mL; MIC [13]: ≤ 0.1 µg/mL; MIC (P. cepacia GIFU 518): 0.39 µg/mL; MIC (F. necrophorum S-45): 0.1 µg/mL; MIC (E. limosum KYA 8486): 0.39 µg/mL; MIC (C. ramosum): 0.2 µg/mL; MIC [14]: 0.2 µg/mL
"CC1CN(c2c(F)cc3c(=O)c(C(=O)O)cn(C4CC4)c3c2Cl)CC1N (centres unmarked) [Example 7, 7-(3-Amino-4-methyl-1-pyrrolidinyl)-8-chloro-1-cyclopropyl-6-fluoro-1,4-dihydro-4-oxo-3-quinolinecarboxylic acid]",0.05,0.0125,0.0125,0.39,0.1,0.1,0.1,0.1,0.0125,0.05,0.025,0.1,0.025,0.2,0.05,0.39,0.05,0.025,0.05,0.39,MIC (S. pneumoniae IID 552): 0.1 µg/mL; MIC (E. faecalis IID 682): 0.1 µg/mL; MIC (S. pyogenes IID 692): 0.1 µg/mL; MIC [10]: 0.0125 µg/mL; MIC [11]: 0.2 µg/mL; MIC [12]: 0.05 µg/mL; MIC [13]: 0.1 µg/mL; MIC (P. cepacia GIFU 518): 0.2 µg/mL; MIC (F. necrophorum S-45): 0.2 µg/mL; MIC (E. limosum KYA 8486): 0.2 µg/mL; MIC (C. ramosum): 0.78 µg/mL; MIC [14]: 0.1 µg/mL
"CC1CN(c2c(F)cc3c(=O)c(C(=O)O)cn(C4CC4)c3c2F)CC1N.Cl (centres unmarked) [Example 11, 7-(3-Amino-4-methyl-1-pyrrolidinyl)-1-cyclopropyl-6,8-difluoro-1,4-dihydro-4-oxo-3-quinolinecarboxylic acid hydrochloride]",0.05,0.025,0.025,0.39,0.39,0.39,0.39,0.39,0.025,0.1,0.05,0.2,0.05,0.78,0.05,0.39,0.05,0.05,0.39,0.78,MIC [10]: 0.025 µg/mL; MIC [11]: 0.39 µg/mL; MIC [12]: 0.05 µg/mL; MIC [13]: 0.78 µg/mL; MIC (P. cepacia GIFU 518; [16]): 0.39 µg/mL; MIC (F. necrophorum S-45): 0.39 µg/mL; MIC (E. limosum KYA 8486): 0.78 µg/mL; MIC (C. ramosum): 1.56 µg/mL; MIC [14]: 0.39 µg/mL
